Assay results from US8716256B2, “Method of therapy and diagnosis of atherosclerosis” (Kaoshiung Medical University, priority 2011, dated 2014).

What was measured:
Format in all cases: cell-based, human
LOX-1 = LOX-1 expression in HASMC by real time PCR and western blot; details: for oxLDL-induced LOX-1 expression (mRNA): HASMC treated with oxLDL plus suppressor, FIGS. 19, 22, 26; for protein levels of LOX-1 (western blot): HASMC with suppressor, with or without oxLDL, FIGS. 20, 23, 28
Description: With reference to FIG. 2, there center on the expression of oxLDL and LOX-1 in human aortic smooth muscle cells. In the present embodiment, a primary human aortic smooth muscle cells (HASMC) cell line purchased from Cascade Biologics (OR, USA) is prepared and treated with various levels of oxLDL. More specifically, the HASMC cell line is incubated in a commercial smooth muscle cell growth supplement (SMGS) medium (Cascade Biologics, OR, USA) at 37° C. in a humidified atmosphere of 95% air and 5% CO2.
In the present embodiment, the HASMC cell line is grown in a 6-well plate till at a density of 2×10^5 cell/well, and then randomly assigned into four groups. The four groups of HASMC are co-cultured with 0, 20, 40, and 60 μg/ml of oxLDL individually for 24 hours, followed by analyzing the gene expression of HASMC via real time polymerase chain reaction (PCR) and western blot. Total RNA samples of the four groups of HASMC are prepared by using a Trizol® reagent (Invitrogen, CA, USA), and further quantitatively confirmed by a spectrophotometer at A260/A280 readings. Then, cDNA samples of the four groups of HASMC are synthesized by using a random primer and a MultiScribe™ Reverse Transcriptase Kit (Applied Biosystems Inc, CA, USA). The cDNA samples of the four groups of HASMC are sequentially diluted in 2×SYBR Green PCR Master Mix (Applied Biosystems Inc, CA, USA) to carry out quantitative real time PCR analysis. In the present invention, a primer pair of LOX-1 is designed and used in the real time PCR analysis, wherein the primer pair of LOX-1 is set forth in SEQ ID NO. 3 and 4.
On the other hand, protein samples of the four groups of HASMC are prepared by harvesting the four groups of HASMC in RIPA buffer (Invitrogen, CA, USA) firstly and centrifuged at 4° C. 1,2000 rpm to obtain supernatants as total cell lysate of the four groups of HASMC. In the present embodiment, the four groups of protein lysate are denatured in a mixture of 2% SDS, 10 mM dithiothreitol, 60 mM Tris-HCl (pH6.8) and 0.1% bromphenol blue, and then analyzed by polyacrylamide/SDS gel. Data obtained from the polyacrylamide/SDS gel analysis are further transferred to PVDF membrane for western blot assay.
In FIG. 9, the expression of LOX-1 in HASMC under various levels of let-7g is monitored and reordered. […]
(§1) In the present embodiment, the HASMCs are randomly assigned into four groups, including groups (O1), as a control; (O2), with treatment of oxLDL; (O3), with co-transfection of the OCT-1 shRNA; and (O4), with co-transfection of the OCT-1 shRNA and treatment of oxLDL, wherein total RNA samples and protein sample of those groups are extracted and analyzed by the real time PCR and the western blot of the present invention. […]

OCT-1 = OCT-1 expression in HASMC by real time PCR and western blot; details: for protein levels of OCT-1 (western blot): HASMC with suppressor, with or without oxLDL, FIGS. 23, 28
Description: The following trials stress on the mechanism between let-7g, LOX-1, oxLDL and OCT-1. In FIG. 17, the expression of OCT-1 under various levels of oxLDL is shown. In the present embodiment, […], and then total RNA samples and protein samples of the HASMC are prepared and analyzed by the real time PCR and western blot assay of the present invention. Precisely, the preparation of the total RNA samples and the protein samples of the HASMC, also the PCR program and western blot assay are performed according to the above protocols. Moreover, a primer pair of OCT-1 set forth in SEQ ID NO. 19 and 20 is designed and used in real time PCR analysis, and a commercial OCT-1 antibody (Sigma-Aldrich Inc, MO, USA) is used in western blot assay.
In the present embodiment, primer pairs set forth in SEQ ID NO. 3, 4, 7, 8, 19, 20, the LOX-1 antibody, and the OCT-1 antibody are used respectively in PCR or western blot assay.
With reference to FIG. […] More specifically, […], such as 0, 25, 50, and 75 μg/ml, […] 2000, […] by real time PCR and western blot according to the protocols described above. Moreover, primer pairs set forth in SEQ ID NO. 19 and 20, and the OCT-1 antibody are used respectively in PCR or western blot analysis.

let-7g = let-7g expression in HASMC by northern blot and real time PCR; details: HASMC treated with oxLDL plus suppressor; FIGS. 18, 21, 25
Description: In FIGS. 7 and 8, there is the relationship between oxLDL and let-7g in the HASMC. In the present embodiment, the HASMC are treated with various levels of oxLDL, for example 0, 20, 40 and 60 μg/ml, in order to monitor and to recorder the effect of oxLDL on let-7g. Similarly, the HASMC cell is grown in a 6-well plate till at a density of 2×10^5 cell/well, and then randomly assigned into plural groups with the treatment of 0, 20, 40 and 60 μg/ml oxLDL individually for 24 hours. Finally, total RNA samples of each group of HASMC are analyzed by northern blot and quantified real time PCR via above protocols. In the present embodiment, a primer pair of let-7g as set forth in SEQ ID NO: 7 and 8 is used in the teal time PCR analysis according to the same PCR program described above. Also, the northern blot of the present invention is determined by using a miRNA northern blot assay kit (Applied Biosystems, CA, USA). […]
as §1

3'UTR region of LOX-1 = assay: LOX-1 3'UTR luciferase reporter assay in CRL-1999 cells; details: groups U1 to U7, FIG. 12
Source text: Referring to FIGS. 10 and 11, the relationship between oxLDL, LOX-1 and let-7g is further identified. In the present invention, the 3′UTR region of LOX-1 is cloned into a commercial vector, preferably downstream of a reporter gene, such as a luciferase gene, for the sake of studying the effect of oxLDL and let-7g on LOX-1 by estimating the activity of the reporter gene. In the present embodiment, a pMIR-LOX-1-3UTR vector is obtained by PCR amplifying the 3′UTR region of LOX-1 in the chromosome DNA of HASMC with a primer pair set forth in SEQ ID NO. 9 and 10; and cloning the amplified 3′UTR region of LOX-1 into a pMIR-REpORT luciferase vector (Ambion Inc, TX, USA). Furthermore, the pMIR-LOX-1-3UTR vector of the present embodiment is transfected into a human smooth muscle cell line CRL-1999 purchased from ATCC (Manassas, Va., USA) by using lipofectamine 2000 (Invitrogen Inc, CA, USA). In the present embodiment, the CRL-1999 cell line of the present embodiment is incubated in F12K Kaighn's modification medium (GIBCO-BRL, MD, USA) with various levels of oxLDL and let-7g mimic, followed by analyzed the activity of luciferase by a Luciferase Assay System (Promega, WI, USA). […]

CC(=O)OCOC(=O)CN(CC(=O)OCOC(C)=O)c1ccc(C)cc1OCCOc1cc(C)ccc1N(CC(=O)OCOC(C)=O)CC(=O)OCOC(C)=O [MAPTAM]
oxLDL-induced LOX-1 expression (mRNA) (LOX-1): decreased
protein levels of LOX-1 (western blot) (LOX-1): significant decrease
oxLDL-induced OCT-1 expression (mRNA) (OCT-1; HASMC treated with oxLDL plus MAPTAM, FIG. 27): decreased
protein levels of OCT-1 (western blot) (OCT-1): significant decrease
oxLDL-mediated inhibition on let-7g (relative let-7g levels) (let-7g): decreased

let-7g: mature form of microRNA-let-7g, as set forth in SEQ ID NO. 2 (UGAGGUAGUAGUUUGUACAGUU; listed as RNA, chemistry not given here; listed as Homo sapiens)
luciferase activity, pMIR-LOX-1-3UTR versus pMIR-LOX-1 mutant 3'UTR (3'UTR region of LOX-1): targets to the 3′UTR region of LOX-1 to suppress the expression of LOX-1

COc1ccc2c(c[n+](C)c3c4cc5c(cc4ccc23)OCO5)c1OC [chelerythrine]
oxLDL-induced LOX-1 expression (mRNA) (LOX-1): inhibited
protein levels of LOX-1 (western blot) (LOX-1): significant decrease
protein levels of OCT-1 (western blot) (OCT-1): significant decrease
oxLDL-mediated inhibition on let-7g (relative let-7g levels) (let-7g): inhibited
